The values that follow come from patent US4678783A, “Substituted isoquinolinesulfonyl compounds” (Asahi Kasei Kogyo Kabushiki Kaisha, priority 1984, dated 1987).

Broadly, the LD50 is the dose expected to kill half of the subjects tested. A low value points to a more toxic substance.

Molecules are shown by their SMILES.

Series [1] concerns male spontaneously hypertensive rats (SHR). The experiment in a line: Reduction of Blood Pressure (systolic, tail plethysmographic method, oral). Type of series: in vivo, rat (SHR, Wister Kyoto). The method, then: Male spontaneously hypertensive rats (SHR, Wister Kyoto) weighing 300 to 350 g were used. Systolic blood pressure was measured indirectly by the tail plethysmographic method in conscious SHR, just prior to, and 1, 2, 4 and 6 hours after oral administration of test drugs. Test drugs, dissolved in deionized water, were administered orally in a volume of 10 ml-solution/kg-rat. Reduction in systolic blood pressure (ΔP, mmHg) was calculated by substracting a systolic blood pressure after administration from that just prior to administration.
Effect of the compounds of the present invention on reduction of blood pressure was examined according to the method as mentioned hereinbefore.

A short description of series [2]: Acute Toxicity. Particulars: mouse, in vivo; ddY male mice. The method, then: Acute toxicity of the compounds of the present invention was determined according to the method given below, and the results are shown in Table 15. […] It is known from the results that the acute toxicity of the compounds of the present invention is satisfactorily low.
Using ddY male mice, acute toxicity of the compounds of the present invention was examined according to the method proposed by K. Takagi et al. (K. Takagi and H. Ozawa, "Experimental Techniques in Pharmacology," p200-206 (1960), NANZANDO CO., LTD.).
Acute toxicity test of the compounds of the present invention was effected according to the method as mentioned hereinbefore.

In series [3] the test system is mesenteric artery of a rabbit. Put plainly: Relaxation of Mesenteric Artery (KCl-contracted spiral strip). The arrangement: species or system rabbit of Japanese local variety. Particulars: Oryctolagus cuniculus; concentration of the hydrochloride attaining 50% of complete relaxation; rabbit mesenteric artery contracted with KCl; read-out: ED50 (the source's name). The method, then:
A rabbit of Japanese local variety weighing about 3 kg was subjected to blood-letting to death. Then, abdomen of the rabbit was dissected to pick up a mesenteric artery. […] Thus, the shrinkage and relaxation of the artery was ready to be measured as a load on the transducer. To the organ bath, KCl was added in an amount which makes the artery shrink at a half length that in 15 to 20 mM aqueous solution. Then, hydrochlorides of the compounds of the present invention were added to the organ bath to observe relaxation effect on the artery.
Effect of the compounds of the present invention on relaxation of mesenteric artery was examined according to the method as mentioned hereinbefore.

Consider `N=C(N)NCCNS(=O)(=O)c1cccc2c(Cl)nccc12` [Compound (31), N-(2-guanidinoethyl)-1-chloro-5-isoquinolinesulfonamide], for which, in series [1] (100 mg/kg), the “ΔPmax (maximally reduced blood pressure)” value was 40 mmHg. The LD50 in series [2] turned out to be 160 mg/kg. Further, the EC50 in series [3] came to 2 µM.
On to `CC1CN(C(=N)N)CCN1S(=O)(=O)c1cccc2c(Cl)nccc12` (stereo not shown) [Compound (45), 1-(1-chloro-5-isoquinolinesulfonyl)-4-amidino-2-methylpiperazine], for which the “ΔPmax (maximally reduced blood pressure)” value in series [1] (100 mg/kg) is recorded as 37 mmHg. Moreover, the EC50 in series [3] stood at 3 µM.
In the case of `CC1CN(S(=O)(=O)c2cccc3c(Cl)nccc23)C(C)CN1C(=N)N` (stereo not shown) [Compound (46), 1-(1-chloro-5-isoquinolinesulfonyl)-4-amidino-2,5-dimethylpiperazine], the “ΔPmax (maximally reduced blood pressure)” value in series [1] (100 mg/kg) is listed as 41 mmHg. Moreover, the EC50 in series [3] was 5 µM.
For `NCCNS(=O)(=O)c1cccc2c(O)nccc12` [Compound (47), N-(2-aminoethyl)-1-hydroxy-5-isoquinolinesulfonamide], the “ΔPmax (maximally reduced blood pressure)” value in series [1] (50 mg/kg) came to 43 mmHg. The EC50 in series [3] stood at 10 µM.
Consider `NCCCCNS(=O)(=O)c1cccc2c(O)nccc12` [Compound (48), N-(4-aminobutyl)-1-hydroxy-5-isoquinolinesulfonamide], for which the “ΔPmax (maximally reduced blood pressure)” value in series [1] (100 mg/kg) is listed as 51 mmHg. For the same compound, in series [3], the EC50 amounted to 15 µM.
With `CC(CN)NS(=O)(=O)c1cccc2c(O)nccc12` (stereo not shown) [Compound (49), N-(2-amino-1-methylethyl)-1-hydroxy-5-isoquinolinesulfonamide], the “ΔPmax (maximally reduced blood pressure)” value in series [1] (50 mg/kg) was found to be 33 mmHg. For the same compound, the EC50 in series [3] stood at 14 µM.
As to `CCCCC(CN)NS(=O)(=O)c1cccc2c(O)nccc12` (stereo not shown) [Compound (50), N-(1-aminomethylpentyl)-1-hydroxyl-5-isoquinolinesulfonamide], the “ΔPmax (maximally reduced blood pressure)” value in series [1] (50 mg/kg) is on record as 28 mmHg. The EC50 in series [3] was 7 µM.
As for `CC(C)C(N)CNS(=O)(=O)c1cccc2c(O)nccc12` (stereo not shown) [Compound (51), N-(2-amino-3-methylbutyl)-1-hydroxy-5-isoquinolinesulfonamide], the “ΔPmax (maximally reduced blood pressure)” value in series [1] (50 mg/kg) turned out to be 71 mmHg. Besides, the EC50 in series [3] was 20 µM.
As for `CCCCN(CCCC)CCCNS(=O)(=O)c1cccc2c(O)nccc12` [Compound (52), N-(3-di-n-butylaminopropyl)-1-hydroxy-5-isoquinolinesulfonamide], the “ΔPmax (maximally reduced blood pressure)” value in series [1] (50 mg/kg) was found to be 65 mmHg. In series [3], the EC50 turned out to be 21 µM.
As to `CN(CCNS(=O)(=O)c1cccc2c(O)nccc12)C1CCCCC1` [Compound (53), N-[2-(N-cyclohexyl-N-methylamino)ethyl]-1-hydroxy-5-isoquinolinesulfonamide], in series [1] (50 mg/kg), the “ΔPmax (maximally reduced blood pressure)” value came out at 56 mmHg. Moreover, the EC50 in series [3] worked out at 17 µM.
For `N=C(N)NCCNS(=O)(=O)c1cccc2c(O)nccc12` [Compound (54), N-(2-guanidinoethyl)-1-hydroxy-5-isoquinolinesulfonamide], in series [1] (100 mg/kg), the “ΔPmax (maximally reduced blood pressure)” value was 40 mmHg. Further, in series [2], the LD50 amounted to 135 mg/kg. The EC50 in series [3] is 18 µM.
Take `N=C(N)NCCCCNS(=O)(=O)c1cccc2c(O)nccc12` [Compound (55), N-(4-guanidinobutyl)-1-hydroxy-5-isoquinolinesulfonamide]: in series [1] (100 mg/kg), the “ΔPmax (maximally reduced blood pressure)” value turned out to be 38 mmHg. Also, the EC50 in series [3] turned out to be 13 µM.
The matching figures for `CC(CNC(=N)N)NS(=O)(=O)c1cccc2c(O)nccc12` (stereo not shown) [Compound (56), N-(2-guanidino-1-methylethyl)-1-hydroxy-5-isoquinolinesulfonamide]: 45 mmHg and 14 µM.
The matching figures for `CCCCC(CNC(=N)N)NS(=O)(=O)c1cccc2c(O)nccc12` (stereo not shown) [Compound (57), N-(1-guanidinomethylpentyl)-1-hydroxy-5-isoquinolinesulfonamide]: 38 mmHg and 11 µM.
For `CC(C)C(CNS(=O)(=O)c1cccc2c(O)nccc12)NC(=N)N` (stereo not shown) [Compound (58), N-(2-guanidino-3-methylbutyl)-1-hydroxy-5-isoquinolinesulfonamide], in series [1] (100 mg/kg), the “ΔPmax (maximally reduced blood pressure)” value is on record as 41 mmHg. Besides, the EC50 in series [3] is 15 µM.
`CC(CNC(=N)N)CNS(=O)(=O)c1cccc2c(O)nccc12` (stereo not shown) [Compound (59), N-(3-guanidino-2-methylpropyl)-1-hydroxy-5-isoquinolinesulfonamide]: the “ΔPmax (maximally reduced blood pressure)” value in series [1] (100 mg/kg) was found to be 52 mmHg. Further, in series [3], the EC50 amounted to 21 µM.
Turning to `CC(C)(CCNS(=O)(=O)c1cccc2c(O)nccc12)NC(=N)N` [Compound (60), N-(3-guanidino-3-methylbutyl)-1-hydroxy-5-isoquinolinesulfonamide], the “ΔPmax (maximally reduced blood pressure)” value in series [1] (100 mg/kg) is on record as 61 mmHg. In series [3], the EC50 was found to be 23 µM.
Consider `CC1CN(S(=O)(=O)c2cccc3c(O)nccc23)CCN1` (stereo not shown) [Compound (61), 1-(1-hydroxy-5-isoquinolinesulfonyl)-3-methylpiperazine], for which, in series [1] (100 mg/kg), the “ΔPmax (maximally reduced blood pressure)” value was found to be 48 mmHg. Further, the EC50 in series [3] came to 17 µM.
Take `CCC1CN(S(=O)(=O)c2cccc3c(O)nccc23)CCN1` (stereo not shown) [Compound (62), 1-(1-hydroxy-5-isoquinolinesulfonyl)-3-ethylpiperazine]: the “ΔPmax (maximally reduced blood pressure)” value in series [1] (100 mg/kg) was 36 mmHg. In addition, the EC50 in series [3] was 25 µM.
Turning to `CC(C)CC1CN(S(=O)(=O)c2cccc3c(O)nccc23)CCN1` (stereo not shown) [Compound (63), 1-(1-hydroxy-5-isoquinolinesulfonyl)-3-isobutylpiperazine], the “ΔPmax (maximally reduced blood pressure)” value in series [1] (100 mg/kg) is reported as 48 mmHg. For the same compound, the EC50 in series [3] came out at 18 µM.
With `CC1CN(S(=O)(=O)c2cccc3c(O)nccc23)C(C)CN1` (stereo not shown) [Compound (64), 1-(1-hydroxy-5-isoquinolinesulfonyl)-2,5-dimethylpiperazine], in series [1] (100 mg/kg), the “ΔPmax (maximally reduced blood pressure)” value amounted to 65 mmHg. Besides, the EC50 in series [3] came to 21 µM.
The matching figures for `CN1CCN(S(=O)(=O)c2cccc3c(O)nccc23)CC1` [Compound (65), 1-(1-hydroxy-5-isoquinolinesulfonyl)-4-methylpiperazine]: 53 mmHg and 25 µM.
On to `N=C(N)N1CCN(S(=O)(=O)c2cccc3c(O)nccc23)CC1` [Compound (66), 1-(1-hydroxy-5-isoquinolinesulfonyl)-4-amidinopiperazine], for which the “ΔPmax (maximally reduced blood pressure)” value in series [1] (100 mg/kg) was found to be 43 mmHg. The EC50 in series [3] worked out at 4 µM.
In the same order, the values of `N=C(N)N1CCCN(S(=O)(=O)c2cccc3c(O)nccc23)CC1` [Compound (67), 1-(1-hydroxy-5-isoquinolinesulfonyl)-4-amidinohomopiperazine] are 44 mmHg and 6 µM.
As for `CC1CN(C(=N)N)CCN1S(=O)(=O)c1cccc2c(O)nccc12` (stereo not shown) [Compound (68), 1-(1-hydroxy-5-isoquinolinesulfonyl)-4-amidino-2-methylpiperazine], the “ΔPmax (maximally reduced blood pressure)” value in series [1] (100 mg/kg) was found to be 48 mmHg. Besides, in series [3], the EC50 was 9 µM.
For the compound `CC1CN(S(=O)(=O)c2cccc3c(O)nccc23)C(C)CN1C(=N)N` (stereo not shown) [Compound (69), 1-(1-hydroxy-5-isoquinolinesulfonyl)-4-amidino-2,5-dimethylpiperazine], in series [1] (100 mg/kg), the “ΔPmax (maximally reduced blood pressure)” value is reported as 51 mmHg. For the same compound, the EC50 in series [3] was 8 µM.
In the case of `CCCCCCNCCNS(=O)(=O)c1cccc2c(Cl)nccc12` [Compound (74), N-(2-hexylaminoethyl)-1-chloro-5-isoquinolinesulfonamide], the “ΔPmax (maximally reduced blood pressure)” value in series [1] (100 mg/kg) turned out to be 45 mmHg. The EC50 in series [3] came to 2 µM.
In the same order, the values of `O=S(=O)(c1cccc2c(Cl)nccc12)N1CCCNCC1` [Compound (76), 1-(1-chloro-5-isoquinolinesulfonyl)homopiperazine] are 60 mmHg and 2 µM.
For `CCCCCCNCCNS(=O)(=O)c1cccc2c(O)nccc12` [Compound (81), N-(2-hexylaminoethyl)-1-hydroxy-5-isoquinolinesulfonamide], in series [1] (100 mg/kg), the “ΔPmax (maximally reduced blood pressure)” value was 54 mmHg. In series [3], the EC50 worked out at 6 µM.
`N=C(N)NCCNS(=O)(=O)c1cccc2cnccc12` [compound 4, reference compound] returned an LD50 in series [2] of 48 mg/kg.
